The text below walks through data of patent US8299048B2, “Hexahydrocyclopentyl[f]indazole sulfonamides and derivatives thereof as selective glucocorticoid receptor modulators” (Merck Sharp & Dohme Corp., priority 2008, dated 2012).

This assay concerns the target T1, glucocorticoid receptor (Homo sapiens, UniProt P04150).
T1 construct: endogenous in cells
T1 sequence (P04150 1-777): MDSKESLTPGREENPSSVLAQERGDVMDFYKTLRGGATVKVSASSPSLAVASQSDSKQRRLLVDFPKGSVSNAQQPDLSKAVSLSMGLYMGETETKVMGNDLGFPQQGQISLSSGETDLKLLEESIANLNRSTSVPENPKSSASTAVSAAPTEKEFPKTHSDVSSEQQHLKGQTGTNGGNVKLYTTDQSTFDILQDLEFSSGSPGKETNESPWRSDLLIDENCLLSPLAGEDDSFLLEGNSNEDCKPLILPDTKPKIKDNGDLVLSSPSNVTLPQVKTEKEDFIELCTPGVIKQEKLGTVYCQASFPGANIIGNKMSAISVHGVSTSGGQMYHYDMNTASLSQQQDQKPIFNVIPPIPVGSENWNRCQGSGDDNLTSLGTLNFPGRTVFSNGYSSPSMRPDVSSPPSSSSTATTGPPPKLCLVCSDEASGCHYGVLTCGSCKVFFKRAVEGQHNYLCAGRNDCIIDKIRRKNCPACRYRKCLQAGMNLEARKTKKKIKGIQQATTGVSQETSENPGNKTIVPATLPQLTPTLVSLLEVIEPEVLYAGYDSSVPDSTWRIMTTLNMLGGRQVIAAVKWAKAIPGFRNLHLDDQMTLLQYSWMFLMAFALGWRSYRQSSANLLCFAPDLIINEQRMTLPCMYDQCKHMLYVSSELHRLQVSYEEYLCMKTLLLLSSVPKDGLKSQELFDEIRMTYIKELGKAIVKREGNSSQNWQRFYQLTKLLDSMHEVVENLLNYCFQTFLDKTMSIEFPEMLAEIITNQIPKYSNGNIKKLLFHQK
As to the kind of experiment: Ligand binding assay (GR BIND). The gist of the method: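 Displacement of tritiated dexamethasone (6 nM trace solution) from receptor in cell supernatant was measured after overnight incubation at 4 °C in molybdate-containing TEGM, pH 7.2, 2% ethanol. Hydroxylapatite pulled down the receptor–ligand complex for filter washing and scintillation counting, with dexamethasone as reference.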

`C[C@]12Cc3cnn(-c4ccc(F)cc4)c3C=C1CC[C@@H]2CN(CCO)S(=O)(=O)c1ccccc1Cl` [Example 81, 2-chloro-N-{[(4αR,5S)-1-(4-fluorophenyl)-4α-methyl-1,4,4α,5,6,7-hexahydrocyclopenta[f]indazol-5-yl]methyl}-N-(2-hydroxyethyl)benzenesulfonamide]: affinity was put at a Ki of 7.2 nM.
For `C[C@]12Cc3cnn(-c4ccc(F)cc4)c3C=C1CC[C@@H]2CN(CCO)S(=O)(=O)c1ccc(F)cc1F` [Example 82, 2,4-difluoro-N-{[(4αR,5S)-1-(4-fluorophenyl)-4α-methyl-1,4,4α,5,6,7-hexahydrocyclopenta[f]indazol-5-yl]methyl}-N-(2-hydroxyethyl)benzenesulfonamide], the affinity corresponds to a Ki of 3.2 nM.
With `Cc1nn(C)c(Cl)c1S(=O)(=O)N(CCO)C[C@H]1CCC2=Cc3c(cnn3-c3ccc(F)cc3)C[C@@]21C` [Example 83, 5-chloro-N-{[(4αR,5S)-1-(4-fluorophenyl)-4α-methyl-1,4,4α,5,6,7-hexahydrocyclopenta[f]indazol-5-yl]methyl}-N-(2-hydroxyethyl)-1,3-dimethyl-1H-pyrazole-4-sulfonamide], the affinity corresponds to a Ki of 3.7 nM.
As for `C[C@]12Cc3cnn(-c4ccc(F)cc4)c3C=C1CC[C@@H]2CN(CCO)S(=O)(=O)c1ccccc1-c1ccccc1` [Example 84, N-{[(4αR,5S)-1-(4-fluorophenyl)-4α-methyl-1,4,4α,5,6,7-hexahydrocyclopenta[f]indazol-5-yl]methyl}-N-(2-hydroxyethyl)biphenyl-2-sulfonamide], affinity was put at a Ki of 2.6 nM.
For the compound `CC(=O)Nc1ccc(S(=O)(=O)N(CCO)C[C@H]2CCC3=Cc4c(cnn4-c4ccc(F)cc4)C[C@@]32C)cc1` [Example 85, N-(4-{[{[(4αR,5S)-1-(4-fluorophenyl)-4α-methyl-1,4,4α,5,6,7-hexahydrocyclopenta[f]indazol-5-yl]methyl}(2-hydroxyethyl)amino]sulfonyl}phenyl)acetamide], affinity was put at a Ki of 6.9 nM.
Regarding `C[C@]12Cc3cnn(-c4ccc(F)cc4)c3C=C1CC[C@@H]2CN(CCc1ccccc1F)S(=O)(=O)c1ccccc1F` [Example 86, 2-fluoro-N-[2-(2-fluorophenyl)ethyl]-N-{[(4αR,5S)-1-(4-fluorophenyl)-4α-methyl-1,4,4α,5,6,7-hexahydrocyclopenta[f]indazol-5-yl]methyl}benzenesulfonamide], the affinity corresponds to a Ki of 4.2 nM.
Consider `CCCS(=O)(=O)N(CCc1ccccc1F)C[C@H]1CCC2=Cc3c(cnn3-c3ccc(F)cc3)C[C@@]21C` [Example 87, N-[2-(2-fluorophenyl)ethyl]-N-{[(4αR,5S)-1-(4-fluorophenyl)-4α-methyl-1,4,4α,5,6,7-hexahydrocyclopenta[f]indazol-5-yl]methyl}propane-1-sulfonamide], for which the affinity, expressed as Ki, was 2.8 nM.
As for `C[C@]12Cc3cnn(-c4ccc(F)cc4)c3C=C1CC[C@@H]2CN(CCc1ccccc1F)S(=O)(=O)Cc1cccc(C(F)(F)F)c1` [Example 88, N-[2-(2-fluorophenyl)ethyl]-N-{[(4αR,5S)-1-(4-fluorophenyl)-4α-methyl-1,4,4α,5,6,7-hexahydrocyclopenta[f]indazol-5-yl]methyl}-1-[3-(trifluoromethyl)phenyl]methanesulfonamide], the inhibition constant Ki (commonly the dissociation constant of the complex between target and ligand, obtained from inhibition or displacement) turned out to be 3.7 nM.
Take `C[C@]12Cc3cnn(-c4ccc(F)cc4)c3C=C1CC[C@@H]2CN(CCc1ccccc1F)S(=O)(=O)CC(F)(F)F` [Example 89, 2,2,2-trifluoro-N-[2-(2-fluorophenyl)ethyl]-N-{[(4αR,5S)-1-(4-fluorophenyl)-4α-methyl-1,4,4α,5,6,7-hexahydrocyclopenta[f]indazol-5-yl]methyl}ethanesulfonamide]: the affinity corresponds to a Ki of 2.4 nM. Compared with the last compound, the Ki is about 1.5-fold lower.
Compound `COc1ccccc1CCN(C[C@H]1CCC2=Cc3c(cnn3-c3ccc(F)cc3)C[C@@]21C)S(=O)(=O)c1ccccc1F` [Example 90, 2-fluoro-N-{[(4αR,5S)-1-(4-fluorophenyl)-4α-methyl-1,4,4α,5,6,7-hexahydrocyclopenta[f]indazol-5-yl]methyl}-N-[2-(2-methoxyphenyl)ethyl]benzenesulfonamide] registered a Ki of 3.6 nM.
In the case of `Cc1ccc(CCN(C[C@H]2CCC3=Cc4c(cnn4-c4ccc(F)cc4)C[C@@]32C)S(=O)(=O)c2ccccc2F)cc1` [Example 91, 2-fluoro-N-{[(4αR,5S)-1-(4-fluorophenyl)-4α-methyl-1,4,4α,5,6,7-hexahydrocyclopenta[f]indazol-5-yl]methyl}-N-[2-(4-methylphenyl)ethyl]benzenesulfonamide], the Ki stood at 2 nM. This Ki lies about 1.8-fold lower than the previous one.
`C[C@]12Cc3cnn(-c4ccc(F)cc4)c3C=C1CC[C@@H]2CN(CCc1ccccc1Cl)S(=O)(=O)c1ccccc1F` [Example 92, N-[2-(2-chlorophenyl)ethyl]-2-fluoro-N-{[(4αR,5S)-1-(4-fluorophenyl)-4α-methyl-1,4,4α,5,6,7-hexahydrocyclopenta[f]indazol-5-yl]methyl}benzenesulfonamide]: the Ki amounted to 3 nM.
Under `CC(C1CCC2=Cc3c(cnn3-c3ccc(F)cc3)C[C@@]21C)N(CCc1ccccc1F)S(=O)(=O)CC(F)(F)F` (stereo partly drawn) [Example 93, 2,2,2-trifluoro-N-[2-(2-fluorophenyl)ethyl]-N-{1-[(4αR)-1-(4-fluorophenyl)-4α-methyl-1,4,4α,5,6,7-hexahydrocyclopenta[f]indazol-5-yl]ethyl}ethanesulfonamide] stands 2.7 nM; under `COCCN(C[C@H]1CCC2=Cc3c(cnn3-c3ccc(F)cc3)C[C@@]21C)S(=O)(=O)c1ccccc1F` [Example 94, 2-fluoro-N-{[(4αR,5S)-1-(4-fluorophenyl)-4α-methyl-1,4,4α,5,6,7-hexahydrocyclopenta[f]indazol-5-yl]methyl}-N-(2-methoxyethyl)benzenesulfonamide], 2.9 nM.
